Here are results for 13 compounds from PubChem BioAssay (NCI).

Some test systems named below: KM12 colon; RPMI-8226 leukemia; IGROV1 ovarian; SF-539 CNS; HL-60(TB) leukemia; A498 renal; NCI-H23 lung; HOP-92 NSCLC; NCI-H460 lung; K-562 leukemia; NCI/ADR-RES ovarian; T-47D breast; SF-295 CNS; HS 578T breast; U251 CNS; MALME-3M melanoma; COLO 205 colon; M14 melanoma.
What all share (test): NCI tumour cell line growth inhibition, 48 h

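These data come from cells grown in 96-well plates and exposed to compound for 48 hours at five concentrations. TGI is the concentration that stops growth completely.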

For `Nc1nc(Cl)cc(NC2(CO)CCC2)n1`, the TGI in the test with KM12 colon, in the test with RPMI-8226 leukemia, in the test with IGROV1 ovarian, with SF-539 CNS, with HL-60(TB) leukemia and in the test with A498 renal was above 100 µM throughout. In addition, the TGI with NCI-H23 lung, with HOP-92 NSCLC, in the test with NCI-H460 lung, with K-562 leukemia, with NCI/ADR-RES ovarian and in the test with T-47D breast was above 100 µM throughout. For the same compound, the TGI in the test on SF-295 CNS, in the test on HS 578T breast, in the test with U251 CNS, with MALME-3M melanoma and in the test with COLO 205 colon was above 100 µM each time.
`O=C(/C=C/c1cccc(Oc2ccccc2)c1)NCc1ccc(C(=O)NCCc2ccccc2)cc1`: the TGI with KM12 colon, in the test with RPMI-8226 leukemia, in the test on IGROV1 ovarian, in the test on SF-539 CNS, in the test on A498 renal and in the test with NCI-H23 lung was above 100 µM throughout. Moreover, the TGI in the test with HOP-92 NSCLC, in the test with NCI-H460 lung, in the test on K-562 leukemia, in the test on NCI/ADR-RES ovarian, in the test with T-47D breast and in the test with SF-295 CNS was above 100 µM in each case. Moreover, the TGI in the test with HS 578T breast, in the test with U251 CNS, in the test on MALME-3M melanoma, in the test with M14 melanoma and in the test with COLO 205 colon was above 100 µM in each case.
Take `CC(C)=CCc1[nH]c2ccccc2c1C1=C(O)C(=O)C(c2c(CC=C(C)C)[nH]c3ccccc23)=C(O)C1=O`: the TGI with KM12 colon turned out to be 2.82 µM; with IGROV1 ovarian it was 3.45 µM; with HL-60(TB) leukemia, 5.6 µM; in the test on A498 renal it was 2.72 µM; in the test on NCI-H23 lung, 5.87 µM; in the test on HOP-92 NSCLC, 4.04 µM. Besides, the TGI was determined as 3.87 µM in the test with NCI-H460 lung; 6.31 µM with K-562 leukemia; 17.3 µM in the test with NCI/ADR-RES ovarian; 25 µM in the test with T-47D breast; 6.5 µM in the test on SF-295 CNS; 73.8 µM in the test with HS 578T breast. The TGI was determined as 6.52 µM in the test with U251 CNS, 4.5 µM in the test on MALME-3M melanoma, 15.6 µM in the test with M14 melanoma and 3.07 µM in the test with COLO 205 colon.
As to `COc1c(-c2nc3nc(N4CCN(C)CC4)ccc3[nH]2)cc(OC)c2c1nc(COC(C)=O)n2C`, the TGI in the test with KM12 colon, with IGROV1 ovarian, in the test on A498 renal, with NCI-H23 lung, in the test on HOP-92 NSCLC and in the test with K-562 leukemia was above 100 µM in each case. Moreover, the TGI in the test with NCI/ADR-RES ovarian, in the test on T-47D breast, with SF-295 CNS, in the test with HS 578T breast, in the test with U251 CNS and in the test with MALME-3M melanoma was above 100 µM throughout. Also, the TGI with M14 melanoma and in the test on COLO 205 colon was above 100 µM in each case.
As to `O=C(CCC=C(S(=O)(=O)c1ccccc1)S(=O)(=O)c1ccccc1)c1ccccc1`, the TGI was above 100 µM in the test with KM12 colon; 31 µM in the test on IGROV1 ovarian; 6.57 µM with SF-539 CNS; 5.2 µM with HL-60(TB) leukemia; 31.7 µM with A498 renal; 30.6 µM in the test with HOP-92 NSCLC. Further, the TGI with NCI-H460 lung turned out to be 33.8 µM; in the test with K-562 leukemia it was 80.4 µM; in the test with NCI/ADR-RES ovarian, 25.8 µM; in the test on T-47D breast, 44.4 µM; in the test on SF-295 CNS it was 60.9 µM; in the test with HS 578T breast, 31 µM. In addition, the TGI in the test on U251 CNS was found to be 15.6 µM; in the test on MALME-3M melanoma, 17.9 µM; in the test on M14 melanoma, 20.9 µM; in the test on COLO 205 colon it was 19.8 µM.
`CC(=O)Oc1c(-c2ccccc2)sc2ccccc12`: the TGI with KM12 colon came to 52.3 µM; in the test on RPMI-8226 leukemia it was 24.8 µM; in the test on IGROV1 ovarian, 30.7 µM; in the test with SF-539 CNS, 46.8 µM; with HL-60(TB) leukemia it was 39.6 µM; in the test on A498 renal, 34.5 µM. For the same compound, the TGI turned out to be 38.7 µM in the test with NCI-H23 lung; 49.8 µM in the test on HOP-92 NSCLC; 27.7 µM in the test on NCI-H460 lung; 36.2 µM with K-562 leukemia; 59.1 µM in the test with NCI/ADR-RES ovarian; 44.5 µM in the test with T-47D breast. Moreover, the TGI in the test on SF-295 CNS stood at 40.3 µM; in the test on HS 578T breast, 40.6 µM; in the test with U251 CNS it was 39.8 µM; in the test on MALME-3M melanoma, 37.2 µM; in the test with COLO 205 colon it was 30.2 µM.
On to `CCCCCCCCCCCCCCCCOP(=O)(O)OCC(N)C(=O)O` (centres undefined), for which the TGI with KM12 colon was 30.2 µM; in the test with RPMI-8226 leukemia it was 47.9 µM; with IGROV1 ovarian, 34.7 µM; with SF-539 CNS it was 39.8 µM; in the test on A498 renal, 34.8 µM; with NCI-H23 lung, 69.4 µM. Moreover, the TGI in the test with HOP-92 NSCLC is 38.4 µM; in the test on NCI-H460 lung, 51.8 µM; in the test on K-562 leukemia, 56.9 µM; with NCI/ADR-RES ovarian, above 100 µM; in the test with T-47D breast it was above 100 µM; in the test on SF-295 CNS it was 31.3 µM. In addition, the TGI is 40.8 µM in the test with HS 578T breast; 26.5 µM with U251 CNS; above 100 µM in the test on MALME-3M melanoma; 46.5 µM with M14 melanoma; 38.1 µM in the test with COLO 205 colon.
Regarding `C=C1C(O)C[C@H](OC(C)=O)[C@]2(C)C1C(OC(C)=O)[C@]1(C(C)(C)O)CC(O)C(C)=C1[C@@H](OC(=O)c1ccccc1)C2OC(C)=O` (some centres undefined), the TGI in the test with KM12 colon, in the test with RPMI-8226 leukemia, in the test on IGROV1 ovarian, with SF-539 CNS, with HL-60(TB) leukemia and in the test with A498 renal was above 10 µM each time. Further, the TGI in the test with NCI-H23 lung, in the test with HOP-92 NSCLC, in the test on NCI-H460 lung, in the test with K-562 leukemia, with NCI/ADR-RES ovarian and in the test with T-47D breast was above 10 µM in each case. Also, the TGI with SF-295 CNS, in the test with HS 578T breast, in the test with U251 CNS, in the test on M14 melanoma and with COLO 205 colon was above 10 µM in each case.
Turning to `Cc1oc2c(c1C)S(=O)(=O)C(C#N)=C(N(C)C)N2`, the TGI in the test on KM12 colon, in the test with RPMI-8226 leukemia, with IGROV1 ovarian, in the test on SF-539 CNS, with A498 renal and in the test on NCI-H23 lung was above 100 µM in each case. The TGI with HOP-92 NSCLC, with NCI-H460 lung, in the test with K-562 leukemia, in the test with NCI/ADR-RES ovarian, in the test on T-47D breast and in the test on SF-295 CNS was above 100 µM each time. Also, the TGI in the test with HS 578T breast, in the test on U251 CNS, with MALME-3M melanoma and in the test with M14 melanoma was above 100 µM throughout.
For the compound `CC(=O)Oc1c2c(c3n(c1=O)CCCC3)C(=O)N(c1ccccc1)C2=O`, the TGI in the test with KM12 colon, in the test with IGROV1 ovarian, in the test with SF-539 CNS, in the test on HL-60(TB) leukemia, with NCI-H23 lung and with HOP-92 NSCLC was above 100 µM each time. Besides, the TGI in the test on NCI-H460 lung, in the test with K-562 leukemia, in the test with NCI/ADR-RES ovarian, in the test on T-47D breast, with SF-295 CNS and in the test on HS 578T breast was above 100 µM in each case. Further, the TGI with U251 CNS, with MALME-3M melanoma, in the test on M14 melanoma and in the test on COLO 205 colon was above 100 µM throughout.
For `CSc1ccn(C2CC(F)C(CO)O2)c(=O)n1` (centres undefined), the TGI in the test on KM12 colon, with IGROV1 ovarian, with SF-539 CNS, in the test on HL-60(TB) leukemia, in the test on A498 renal and with NCI-H23 lung was above 100 µM throughout. In addition, the TGI in the test with HOP-92 NSCLC, in the test with NCI-H460 lung, in the test on K-562 leukemia, with NCI/ADR-RES ovarian, in the test with T-47D breast and in the test on SF-295 CNS was above 100 µM throughout. The TGI in the test with HS 578T breast, with U251 CNS, with MALME-3M melanoma, in the test on M14 melanoma and in the test on COLO 205 colon was above 100 µM throughout.
On to `Cn1ncc2c(Cl)ncnc21`, for which the TGI in the test with KM12 colon, in the test on RPMI-8226 leukemia, with IGROV1 ovarian, with SF-539 CNS, in the test on HL-60(TB) leukemia and in the test on A498 renal was above 100 µM in each case. Further, the TGI in the test on NCI-H23 lung, in the test on HOP-92 NSCLC, with NCI-H460 lung, in the test on K-562 leukemia, in the test with NCI/ADR-RES ovarian and in the test with T-47D breast was above 100 µM throughout. Besides, the TGI in the test on SF-295 CNS, with HS 578T breast, in the test on U251 CNS, with M14 melanoma and with COLO 205 colon was above 100 µM throughout.
Turning to `N=c1c2c(=S)n(-c3ccccc3)c(=S)n(-c3ccccc3)c2nc(SCCN2CCCC2)n1-c1ccccc1`, the TGI turned out to be 11.6 µM with KM12 colon; 3.52 µM in the test with IGROV1 ovarian; 9.71 µM in the test on SF-539 CNS; 0.88 µM with HL-60(TB) leukemia; 23.5 µM with A498 renal; 9.2 µM with NCI-H23 lung. The TGI was found to be 3.48 µM in the test on HOP-92 NSCLC; 3.63 µM in the test with NCI-H460 lung; 3.62 µM in the test with K-562 leukemia; 42.1 µM in the test with NCI/ADR-RES ovarian; 8.44 µM in the test with T-47D breast; 32.9 µM in the test with SF-295 CNS. The TGI was above 100 µM with HS 578T breast; 8.36 µM in the test on U251 CNS; 3.87 µM in the test with MALME-3M melanoma; 3.44 µM in the test with M14 melanoma; 3.17 µM in the test with COLO 205 colon.
